According to patent US20060030585A1, “Tricyclic delta-opioid modulators” (priority 2004, published 2006):
Read-outs that look alike come from different tables or passages of the source.

Tests used:
[1] = target: delta opioid receptor (Rattus norvegicus, UniProt P33533); experiment: Rat brain delta opioid receptor binding assay ([3H]DPDPE); settings: Rat delta opioid receptor binding constant, rat forebrain membranes, ~4 nM [3H]DPDPE
Protocol: Rat Brain Delta Opioid Receptor Binding Assay
Procedure: Male, Sprague Dawley rats (150-250 g, VAF, Charles River, Kingston, N.Y.) were killed by CO2, and their brains removed and placed immediately in ice cold Tris HCl buffer (50 mM, pH 7.4). The forebrains were separated from the remainder of the brain by a coronal transection, beginning dorsally at the colliculi and passing ventrally through the midbrain-pontine junction. After dissection, the forebrains were homogenized in Tris buffer in a Teflon®-glass homogenizer. The homogenate was diluted to a concentration of 1 g of forebrain tissue per 80 mL Tris and centrifuged at 39,000×g for 10 min. The pellet was resuspended in the same volume of Tris buffer containing 5 mM MgCl2 with several brief pulses from a Polytron homogenizer. This particulate preparation was used for the delta opioid binding assays. Following incubation with the delta selective peptide ligand ˜4 nM [^3H]DPDPE at 25° C. for 2.5 h in a 96-well plate with total volume of 1 mL, the plate contents were filtered through Wallac filtermat B sheets on a Tomtec 96-well harvester. The filters were rinsed three times with 2 mL of 10 mM HEPES (pH 7.4), and dried in a 650 W microwave oven for 1.75 min twice. To each sample area 2×50 μL of Betaplate Scint scintillation fluid (LKB) was added and the radioactivity quantified on a LKB (Wallac) 1205 BetaPlate liquid scintillation counter.
(§1) Analysis: The data from the scintillation counter were used to calculate either the % inhibition compared to control binding (when only a single concentration of test compound was evaluated) or a Ki value (when a range of concentrations was tested). Percent inhibition was calculated as: [(total dpm-test compound dpm)/(total dpm-nonspecific dpm)]*100. Kd and Ki values were calculated using GraphPad PRISM data analysis program.

[2] = target: mu opioid receptor (Rattus norvegicus, UniProt P33535); experiment: Rat brain mu opioid receptor binding assay ([3H]DAMGO); settings: Rat mu opioid receptor binding constant, rat forebrain membranes, ~0.8 nM [3H]DAMGO
Sequence of mu opioid receptor (P33535 whole entry): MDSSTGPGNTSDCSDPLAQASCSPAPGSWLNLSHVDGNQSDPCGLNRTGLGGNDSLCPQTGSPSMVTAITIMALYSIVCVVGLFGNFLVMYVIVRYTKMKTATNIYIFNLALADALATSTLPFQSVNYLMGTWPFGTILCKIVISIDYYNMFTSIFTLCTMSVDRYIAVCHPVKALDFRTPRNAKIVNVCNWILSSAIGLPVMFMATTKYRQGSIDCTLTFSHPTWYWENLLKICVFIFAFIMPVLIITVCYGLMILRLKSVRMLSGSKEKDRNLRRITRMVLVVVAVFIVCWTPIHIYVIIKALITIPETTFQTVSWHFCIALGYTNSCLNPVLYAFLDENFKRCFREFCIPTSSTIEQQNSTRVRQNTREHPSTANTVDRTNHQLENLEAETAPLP
Protocol: Rat Brain Mu Opioid Receptor Binding Assay
Procedure: Male, Sprague Dawley rats (150-250 g, VAF, Charles River, Kingston, N.Y.) were killed by CO2, and their brains removed and placed immediately in ice cold Tris HCl buffer (50 mM, pH 7.4). The forebrains were separated from the remainder of the brain by a coronal transection, beginning dorsally at the colliculi and passing ventrally through the midbrain-pontine junction. After dissection, the forebrains were homogenized in Tris buffer in a Teflon®-glass homogenizer. The homogenate was diluted to a concentration of 1 g of forebrain tissue per 80 mL Tris and centrifuged at 39,000×g for 10 min. The pellet was resuspended in the same volume of Tris buffer containing 5 mM MgCl2 with several brief pulses from a Polytron homogenizer. This particulate preparation was used for the delta opioid binding assays.
as §1, with “concentrations” for “concentrations was”

Sequence of delta opioid receptor (P33533 whole entry): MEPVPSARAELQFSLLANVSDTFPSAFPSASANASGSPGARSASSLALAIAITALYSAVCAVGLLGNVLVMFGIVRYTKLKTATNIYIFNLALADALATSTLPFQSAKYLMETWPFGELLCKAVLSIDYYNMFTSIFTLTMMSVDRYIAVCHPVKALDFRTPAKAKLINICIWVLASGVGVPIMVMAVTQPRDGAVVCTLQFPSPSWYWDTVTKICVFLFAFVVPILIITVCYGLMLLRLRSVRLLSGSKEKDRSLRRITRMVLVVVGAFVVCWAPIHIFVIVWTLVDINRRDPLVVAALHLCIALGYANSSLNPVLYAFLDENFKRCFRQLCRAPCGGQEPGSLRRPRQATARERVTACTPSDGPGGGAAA

O=C(NC(CO)Cc1ccccc1)c1ccc2c(c1)Oc1ccccc1C2=C1CC2CCC(C1)N2 (single isomer, unassigned) [Cpd 27]
Ki ([1]; DOR Ki): 100 nM
Ki ([2]; MOR Ki): 100 nM

O=C(c1ccc2c(c1)Oc1ccccc1C2=C1CC2CCC(C1)N2)N1CCC(O)C1 (single isomer, unassigned) [Cpd 69]
Ki ([1]; DOR Ki): 105 nM
Ki ([2]; MOR Ki): 2060 nM

O=C(c1ccc2c(c1)Oc1ccccc1C2=C1CC2CCC(C1)N2)N1CCC(O)C1 (single isomer, unassigned) [Cpd 70]
Ki ([1]; DOR Ki): 63 nM
Ki ([2]; MOR Ki): 1660 nM

c1ccc2c(c1)Sc1cc(-c3nnn[nH]3)ccc1C2=C1C[C@H]2CC[C@@H](C1)N2 (single isomer, unassigned) [Cpd 102, (1RS,5SR)-3-[3-(1H-Tetrazol-5-yl)-thioxanthen-9-ylidene]-8-aza-bicyclo[3.2.1]octane]
Ki ([1]; DOR Ki): 54 nM
Ki ([2]; MOR Ki): 2770 nM

O=C(c1ccc2c(c1)Oc1ccccc1C2=C1CC2CCC(C1)N2)N1CCC(O)C1 (single isomer, unassigned) [Cpd 127]
Ki ([1]; DOR Ki): 191 nM
Ki ([2]; MOR Ki): 907 nM

CCN(CC)C(=N)c1ccc2c(c1)Oc1ccccc1C2=C1CC2CCC(C1)N2 [Cpd 9, 9-(8-Aza-bicyclo[3.2.1]oct-3-ylidene)-N,N-diethyl-9H-xanthene-3-carboxamidine]
Ki ([1]; DOR Ki): 14 nM
Ki ([2]; MOR Ki): 3540 nM

O=S1NC(c2ccc3c(c2)Oc2ccccc2C3=C2CC3CCC(C2)N3)=NO1 (stereo not drawn) [Cpd 10, 3-[3-(2-Oxo-2,3-dihydro-2|4-[1,2,3,5]oxathiadiazol-4-yl)-xanthen-9-ylidene]-8-aza-bicyclo[3.2.1]octane]
Ki ([1]; DOR Ki): 15.1 nM
Ki ([2]; MOR Ki): 819 nM

CN(C(=O)c1ccc2c(c1)Oc1ccccc1C2=C1CC2CCC(C1)N2)c1ccccc1 [Cpd 14]
Ki ([1]; DOR Ki): 27.1 nM
Ki ([2]; MOR Ki): 1160 nM

CN(CCc1ccccc1)C(=O)c1ccc2c(c1)Oc1ccccc1C2=C1CC2CCC(C1)N2 [Cpd 17]
Ki ([1]; DOR Ki): 37 nM
Ki ([2]; MOR Ki): 37 nM

NC(=O)c1ccccc1-c1ccc2c(c1)Oc1ccccc1C2=C1CC2CCC(C1)N2 [Cpd 18]
Ki ([1]; DOR Ki): 38 nM
Ki ([2]; MOR Ki): 1540 nM

O=C(NCCc1ccccc1)c1ccc2c(c1)Oc1ccccc1C2=C1CC2CCC(C1)N2 [Cpd 19]
Ki ([1]; DOR Ki): 45 nM
Ki ([2]; MOR Ki): 438 nM

CC(=O)Nc1cccc(-c2ccc3c(c2)Oc2ccccc2C3=C2CC3CCC(C2)N3)c1 [Cpd 20]
Ki ([1]; DOR Ki): 46.6 nM
Ki ([2]; MOR Ki): 2800 nM

Cn1nnnc1-c1ccc2c(c1)Oc1ccccc1C2=C1CC2CCC(C1)N2 [Cpd 21, 3-[3-(1-Methyl-1 H-tetrazol-5-yl)-xanthen-9-ylidene]-8-aza-bicyclo[3.2.1]octane]
Ki ([1]; DOR Ki): 54 nM
Ki ([2]; MOR Ki): 1740 nM

CN(C(=O)c1ccc2c(c1)Oc1ccccc1C2=C1CC2CCC(C1)N2)C1CCCCC1 [Cpd 22]
Ki ([1]; DOR Ki): 54.9 nM
Ki ([2]; MOR Ki): 1120 nM

OCc1cccc(-c2ccc3c(c2)Oc2ccccc2C3=C2CC3CCC(C2)N3)c1 [Cpd 23]
Ki ([1]; DOR Ki): 75 nM
Ki ([2]; MOR Ki): 3510 nM

NC(=NO)c1ccc2c(c1)Oc1ccccc1C2=C1CC2CCC(C1)N2 [Cpd 24]
Ki ([1]; DOR Ki): 76.8 nM
Ki ([2]; MOR Ki): 621 nM

Nc1ccccc1-c1ccc2c(c1)Oc1ccccc1C2=C1CC2CCC(C1)N2 [Cpd 25]
Ki ([1]; DOR Ki): 77.4 nM
Ki ([2]; MOR Ki): 1660 nM

CCc1cnc(-c2ccc3c(c2)Oc2ccccc2C3=C2CC3CCC(C2)N3)[nH]1 [Cpd 26, 3-[3-(5-Ethyl-1 H-imidazol-2-yl)-xanthen-9-ylidene]-8-aza-bicyclo[3.2.1]-octane]
Ki ([1]; DOR Ki): 81 nM
Ki ([2]; MOR Ki): 249 nM

CC(C)CN(CC(C)C)C(=N)c1ccc2c(c1)Oc1ccccc1C2=C1CC2CCC(C1)N2 [Cpd 28]
Ki ([1]; DOR Ki): 107 nM
Ki ([2]; MOR Ki): 3100 nM

c1ccc2c(c1)Oc1cc(-c3ccncc3)ccc1C2=C1CC2CCC(C1)N2 [Cpd 29]
Ki ([1]; DOR Ki): 133 nM
Ki ([2]; MOR Ki): 1820 nM

CC(=O)Nc1ccc(-c2ccc3c(c2)Oc2ccccc2C3=C2CC3CCC(C2)N3)cc1 [Cpd 30]
Ki ([1]; DOR Ki): 139 nM
Ki ([2]; MOR Ki): 2740 nM

COC[C@H](Cc1ccccc1)NC(=O)c1ccc2c(c1)Oc1ccccc1C2=C1CC2CCC(C1)N2 [Cpd 31]
Ki ([1]; read-out: DOR Ki): 142 nM
Ki ([2]; read-out: MOR Ki): 660 nM

COc1ccc(-c2ccc3c(c2)Oc2ccccc2C3=C2CC3CCC(C2)N3)cn1 [Cpd 32]
Ki ([1]; DOR Ki): 160 nM

c1ccc2c(c1)Oc1cc(C3=NCCN3)ccc1C2=C1CC2CCC(C1)N2 [Cpd 33]
Ki ([1]; DOR Ki): 224 nM
Ki ([2]; MOR Ki): 315 nM

O=C(NC1CCC(c2ccccc2)CC1)c1ccc2c(c1)Oc1ccccc1C2=C1CC2CCC(C1)N2 (stereo not drawn) [Cpd 34]
Ki ([1]; read-out: DOR Ki): 247 nM
Ki ([2]; read-out: MOR Ki): 6240 nM

Cc1nnc(-c2ccc3c(c2)Oc2ccccc2C3=C2CC3CCC(C2)N3)[nH]1 [Cpd 35, 3-[3-(5-Methyl-4H-[1,2,4]triazol-3-yl)-xanthen-9-ylidene]-8-aza-bicyclo[3.2.1]octane]
Ki ([1]; DOR Ki): 266 nM
Ki ([2]; MOR Ki): 673 nM

Cc1nc(-c2ccc3c(c2)Oc2ccccc2C3=C2CC3CCC(C2)N3)no1 [Cpd 36, 3-[3-(5-Methyl-[1,2,4]oxadiazol-3-yl)-xanthen-9-ylidene]-8-aza-bicyclo[3.2.1]octane]
Ki ([1]; DOR Ki): 373 nM
Ki ([2]; MOR Ki): 3550 nM

COC(=O)[C@H](CO)NC(=O)c1ccc2c(c1)Oc1ccccc1C2=C1CC2CCC(C1)N2 [Cpd 37]
Ki ([1]; DOR Ki): 412 nM
Ki ([2]; MOR Ki): 950 nM

Oc1cccc(-c2ccc3c(c2)Oc2ccccc2C3=C2CC3CCC(C2)N3)c1 [Cpd 38]
Ki ([1]; DOR Ki): 418 nM
Ki ([2]; MOR Ki): 706 nM

CC(C)NC(=N)c1ccc2c(c1)Oc1ccccc1C2=C1CC2CCC(C1)N2 [Cpd 39]
Ki ([1]; DOR Ki): 441 nM
Ki ([2]; MOR Ki): 5170 nM

O=C(NCc1ccccc1)c1ccc2c(c1)Oc1ccccc1C2=C1CC2CCC(C1)N2 [Cpd 40]
Ki ([1]; read-out: DOR Ki): 456 nM
Ki ([2]; read-out: MOR Ki): 3090 nM

c1ccc2c(c1)Oc1cc(C3=NCCCN3)ccc1C2=C1CC2CCC(C1)N2 [Cpd 41]
Ki ([1]; DOR Ki): 464 nM
Ki ([2]; MOR Ki): 875 nM

Nc1ccc(-c2ccc3c(c2)Oc2ccccc2C3=C2CC3CCC(C2)N3)cc1 [Cpd 42]
Ki ([1]; DOR Ki): 490 nM
Ki ([2]; MOR Ki): 1310 nM

N=C(c1ccc2c(c1)Oc1ccccc1C2=C1CC2CCC(C1)N2)N1CCCCC1 [Cpd 43]
Ki ([1]; DOR Ki): 496 nM
Ki ([2]; MOR Ki): 5340 nM

COc1ccccc1-c1ccc2c(c1)Oc1ccccc1C2=C1CC2CCC(C1)N2 [Cpd 44]
Ki ([1]; DOR Ki): 659 nM
Ki ([2]; MOR Ki): 7580 nM

O=C(NC1CCCC1)c1ccc2c(c1)Oc1ccccc1C2=C1CC2CCC(C1)N2 [Cpd 45]
Ki ([1]; DOR Ki): 673 nM
Ki ([2]; MOR Ki): 3100 nM

Cc1cccc(-c2ccc3c(c2)Oc2ccccc2C3=C2CC3CCC(C2)N3)c1 [Cpd 46]
Ki ([1]; DOR Ki): 723 nM

O=C(Nc1ccccc1)c1ccc2c(c1)Oc1ccccc1C2=C1CC2CCC(C1)N2 [Cpd 47]
Ki ([1]; DOR Ki): 813 nM
Ki ([2]; MOR Ki): 1200 nM

O=C(c1ccc2c(c1)Oc1ccccc1C2=C1CC2CCC(C1)N2)N(CC(F)(F)F)CC(F)(F)F [Cpd 48]
Ki ([1]; read-out: DOR Ki): 939 nM
Ki ([2]; read-out: MOR Ki): 2060 nM

CC(C)CNC(=N)c1ccc2c(c1)Oc1ccccc1C2=C1CC2CCC(C1)N2 [Cpd 49]
Ki ([1]; DOR Ki): 1330 nM
Ki ([2]; MOR Ki): 4020 nM

N=C(c1ccc2c(c1)Oc1ccccc1C2=C1CC2CCC(C1)N2)N1CCOCC1 [Cpd 50]
Ki ([1]; DOR Ki): 1760 nM
Ki ([2]; MOR Ki): 14900 nM

Fc1cccc(-c2ccc3c(c2)Oc2ccccc2C3=C2CC3CCC(C2)N3)c1 [Cpd 51]
Ki ([1]; DOR Ki): 2440 nM
Ki ([2]; MOR Ki): 16500 nM

CN(Cc1ccccc1)C(=O)c1ccc2c(c1)Oc1ccccc1C2=C1CC2CCC(C1)N2 [Cpd 52]
Ki ([1]; DOR Ki): 2730 nM
Ki ([2]; MOR Ki): 1830 nM

CS(=O)(=O)c1ccc(-c2ccc3c(c2)Oc2ccccc2C3=C2CC3CCC(C2)N3)cc1 [Cpd 53]
Ki ([1]; DOR Ki): 3140 nM
Ki ([2]; MOR Ki): 3290 nM

Fc1ccc(-c2ccc3c(c2)Oc2ccccc2C3=C2CC3CCC(C2)N3)cc1 [Cpd 54]
Ki ([1]; DOR Ki): 4470 nM
